How the values were obtained:
[1] = biological target: Epidermal growth factor receptor [T790M,L858R] (Homo sapiens, UniProt P00533, L858R/T790M); assay: Inhibitory Activity for EGFR (L858R/T790M) Kinase
In short: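 Recombinant EGFR L858R/T790M (0.0025 ng/μL final) pre-incubated 30 min with compound (10–0.0024 nM, 7 points) in HEPES/MgCl2/DTT buffer. Reaction run 2 h at room temperature with 5 μM ATP and 0.1 μM ULight-poly GT, then stopped with EDTA. Eu-anti-phosphotyrosine TR-FRET read; IC50 from four-parameter fit.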

[2] = biological target: Epidermal growth factor receptor [T790M,C797S,L858R] (UniProt P00533, C797S/L858R/T790M); assay: Inhibitory Activity for EGFR (L858R/T790M/C797S) Kinase
Chain of Epidermal growth factor receptor [T790M,C797S,L858R] (P00533 25-1210 T790M/C797S/L858R limits assumed): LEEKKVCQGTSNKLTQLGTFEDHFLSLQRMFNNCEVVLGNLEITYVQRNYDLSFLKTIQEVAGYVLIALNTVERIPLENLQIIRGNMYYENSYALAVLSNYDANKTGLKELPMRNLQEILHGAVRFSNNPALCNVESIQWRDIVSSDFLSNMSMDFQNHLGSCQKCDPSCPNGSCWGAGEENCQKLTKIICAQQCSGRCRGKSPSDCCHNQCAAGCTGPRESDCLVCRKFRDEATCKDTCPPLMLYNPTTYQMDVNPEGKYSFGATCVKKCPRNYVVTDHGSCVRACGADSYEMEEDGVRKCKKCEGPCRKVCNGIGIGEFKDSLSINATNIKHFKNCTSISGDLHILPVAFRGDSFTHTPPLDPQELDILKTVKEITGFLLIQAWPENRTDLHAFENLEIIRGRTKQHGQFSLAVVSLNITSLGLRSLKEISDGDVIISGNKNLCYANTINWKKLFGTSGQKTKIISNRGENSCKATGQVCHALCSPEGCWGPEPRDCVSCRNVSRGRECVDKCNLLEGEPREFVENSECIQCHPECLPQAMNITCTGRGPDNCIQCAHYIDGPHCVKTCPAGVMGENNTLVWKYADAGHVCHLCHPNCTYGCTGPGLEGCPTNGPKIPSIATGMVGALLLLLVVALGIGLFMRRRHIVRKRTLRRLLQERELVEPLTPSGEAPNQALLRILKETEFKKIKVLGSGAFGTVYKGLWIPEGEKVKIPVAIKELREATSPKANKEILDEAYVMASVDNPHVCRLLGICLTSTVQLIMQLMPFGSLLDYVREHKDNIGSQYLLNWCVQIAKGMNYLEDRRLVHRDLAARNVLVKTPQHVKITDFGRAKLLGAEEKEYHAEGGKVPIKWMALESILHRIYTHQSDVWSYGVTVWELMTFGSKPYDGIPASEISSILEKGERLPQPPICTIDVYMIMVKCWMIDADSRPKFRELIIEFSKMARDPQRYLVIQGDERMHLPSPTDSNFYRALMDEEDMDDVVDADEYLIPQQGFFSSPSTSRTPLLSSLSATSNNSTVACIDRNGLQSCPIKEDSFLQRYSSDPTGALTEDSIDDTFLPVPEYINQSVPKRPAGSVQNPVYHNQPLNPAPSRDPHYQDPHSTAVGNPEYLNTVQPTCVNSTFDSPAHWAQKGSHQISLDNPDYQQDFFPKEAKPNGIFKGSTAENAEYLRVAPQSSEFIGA
In short: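 Triple-mutant enzyme (0.001 ng/μL final) preincubated 30 min with compound (10 nM–0.0024 nM), then reacted 2 h at room temperature with 5 μM ATP and 0.1 μM ULight-poly GT. Stopped with EDTA, detected by Eu-anti-phospho-tyrosine TR-FRET; IC50 by four-parameter fit.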

[3] = biological target: Epidermal growth factor receptor (Homo sapiens, UniProt P00533); assay: Inhibitory Activity for EGFR (WT) Kinase
Chain of Epidermal growth factor receptor (P00533 whole entry): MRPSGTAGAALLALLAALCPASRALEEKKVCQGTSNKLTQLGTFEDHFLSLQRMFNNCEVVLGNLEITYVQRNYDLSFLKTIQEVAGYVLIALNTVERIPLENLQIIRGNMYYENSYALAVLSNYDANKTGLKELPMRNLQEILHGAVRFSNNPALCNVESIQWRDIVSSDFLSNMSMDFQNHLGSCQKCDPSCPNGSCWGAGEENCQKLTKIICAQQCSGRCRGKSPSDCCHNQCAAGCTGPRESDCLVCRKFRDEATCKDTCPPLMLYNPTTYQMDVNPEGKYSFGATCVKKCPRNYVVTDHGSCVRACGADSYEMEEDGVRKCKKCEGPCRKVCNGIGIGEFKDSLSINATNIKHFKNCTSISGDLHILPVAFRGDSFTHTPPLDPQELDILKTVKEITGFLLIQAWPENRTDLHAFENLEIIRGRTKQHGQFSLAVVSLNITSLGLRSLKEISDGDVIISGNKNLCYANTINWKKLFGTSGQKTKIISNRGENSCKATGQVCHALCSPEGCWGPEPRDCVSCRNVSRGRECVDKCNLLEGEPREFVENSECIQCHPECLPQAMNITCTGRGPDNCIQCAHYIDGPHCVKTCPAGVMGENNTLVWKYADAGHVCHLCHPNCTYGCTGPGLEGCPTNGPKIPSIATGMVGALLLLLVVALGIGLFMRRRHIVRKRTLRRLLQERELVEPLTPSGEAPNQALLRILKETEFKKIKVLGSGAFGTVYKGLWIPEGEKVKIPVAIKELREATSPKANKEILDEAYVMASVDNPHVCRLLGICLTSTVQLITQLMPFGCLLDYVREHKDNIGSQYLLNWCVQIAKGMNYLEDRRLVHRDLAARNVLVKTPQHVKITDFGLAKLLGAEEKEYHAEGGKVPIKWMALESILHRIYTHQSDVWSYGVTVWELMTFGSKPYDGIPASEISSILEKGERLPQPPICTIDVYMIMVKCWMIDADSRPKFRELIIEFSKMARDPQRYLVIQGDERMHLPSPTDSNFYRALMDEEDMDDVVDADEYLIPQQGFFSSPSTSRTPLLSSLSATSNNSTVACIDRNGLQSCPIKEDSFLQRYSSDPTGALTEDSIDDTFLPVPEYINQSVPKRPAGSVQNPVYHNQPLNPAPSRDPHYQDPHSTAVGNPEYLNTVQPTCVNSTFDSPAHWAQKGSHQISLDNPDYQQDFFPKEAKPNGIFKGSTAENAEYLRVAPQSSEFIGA
Protocol: A 50 ng/μL EGFR (WT, Carna) stock solution was diluted with a kinase buffer (50 mM HEPES, 10 mM MgCl2, 2 mM DTT, 1 mM EGTA, 0.01% Tween 20), and 6 μL of 1.67× working solution at 0.005 ng/μL (final concentration: 0.003 ng/μL) was added to each well. Different compounds dissolved in DMSO were added to the wells using a nanoliter pipettor, resulting in the final concentrations of the compounds of 100 nM to 0.0244 nM (4-fold gradient for 7 concentrations in total), and blank control wells (without enzyme) and negative control wells (with enzyme, plus vehicle DMSO) were set, 2 replicate wells for each concentration. After enzyme was reacted with the compound or vehicle for 30 min, 5×ATP at 25 μM (final concentration: 5 μM, Sigma) prepared with a kinase buffer was mixed with 5× substrate at 0.5 μM (final concentration: 0.1 μM, ULight-poly GT, PerkinElmer) at a ratio of 1:1 (v:v), and the mixture was added to each well at 4 μL/well. After being sealed with a film, the plate was incubated at room temperature for 2 h, and then 5 μL of 4×EDTA at 40 mM (final concentration: 10 mM) was added to each well. After the plate was incubated for 5 min at room temperature, 5 μL of 4× detection reagent at 8 nM (final concentration: 2 nM, Eu-anti-phospho-tyrosine antibody, PerkinElmer) was added to each well.

Chain of Epidermal growth factor receptor [T790M,L858R] (P00533 25-1210 T790M/L858R limits assumed): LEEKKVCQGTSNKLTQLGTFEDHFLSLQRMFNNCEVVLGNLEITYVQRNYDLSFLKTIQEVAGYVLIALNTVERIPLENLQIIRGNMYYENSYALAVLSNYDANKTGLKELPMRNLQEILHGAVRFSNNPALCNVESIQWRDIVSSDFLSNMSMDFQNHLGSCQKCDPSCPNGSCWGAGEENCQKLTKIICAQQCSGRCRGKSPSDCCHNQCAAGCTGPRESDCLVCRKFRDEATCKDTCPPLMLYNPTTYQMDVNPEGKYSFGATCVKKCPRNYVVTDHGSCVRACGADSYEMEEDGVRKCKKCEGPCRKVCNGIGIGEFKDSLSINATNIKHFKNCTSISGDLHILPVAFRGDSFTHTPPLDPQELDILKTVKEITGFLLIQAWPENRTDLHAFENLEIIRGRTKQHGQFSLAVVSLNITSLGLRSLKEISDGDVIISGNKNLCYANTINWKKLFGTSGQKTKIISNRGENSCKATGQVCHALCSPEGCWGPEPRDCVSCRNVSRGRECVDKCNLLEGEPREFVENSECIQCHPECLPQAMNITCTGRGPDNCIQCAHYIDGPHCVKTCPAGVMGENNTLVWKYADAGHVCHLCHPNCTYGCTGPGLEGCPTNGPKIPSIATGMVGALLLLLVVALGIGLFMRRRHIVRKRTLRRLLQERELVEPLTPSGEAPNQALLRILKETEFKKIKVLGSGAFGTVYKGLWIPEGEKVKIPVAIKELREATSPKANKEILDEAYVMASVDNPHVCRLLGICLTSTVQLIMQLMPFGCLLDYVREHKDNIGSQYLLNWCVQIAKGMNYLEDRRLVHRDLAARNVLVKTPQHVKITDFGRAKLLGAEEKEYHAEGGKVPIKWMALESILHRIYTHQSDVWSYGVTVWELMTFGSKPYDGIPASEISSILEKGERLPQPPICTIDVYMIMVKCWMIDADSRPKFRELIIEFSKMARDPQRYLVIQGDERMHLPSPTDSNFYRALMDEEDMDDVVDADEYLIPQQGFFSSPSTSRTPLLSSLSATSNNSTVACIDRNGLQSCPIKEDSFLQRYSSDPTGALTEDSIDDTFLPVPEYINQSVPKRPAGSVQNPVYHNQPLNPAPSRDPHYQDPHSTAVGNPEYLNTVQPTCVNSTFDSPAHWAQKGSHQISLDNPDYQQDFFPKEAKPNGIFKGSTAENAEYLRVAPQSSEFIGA

SMILES	IC50 [1]	IC50 [2]	IC50 [3]
[2H]C([2H])([2H])N(C[C@@H](C)Nc1ccc2c(c1)N/C1=N/C(=O)c3cc(C)nc(c3)-c3cnn(C)c3OCCC[C@@H](C3CC3)CN12)C([2H])([2H])[2H] [US20250034165, Example 146]	0.52 nM	0.75 nM	
[2H]C([2H])([2H])N(C[C@H](C)Nc1ccc2c(c1)N/C1=N/C(=O)c3cc(C)nc(c3)-c3cnn(C)c3OCCC[C@@H](C3CC3)CN12)C([2H])([2H])[2H] [US20250034165, Example 124]	0.22 nM	0.16 nM	
CNCCCNc1ccc2c(c1)N/C1=N\C(=O)c3cc(C)nc(c3)-c3cnn(C)c3OCCC[C@@H](C3CC3)CN12 [US20250034165, Example 49]	0.048 nM	0.051 nM	2.2 nM

Stronger by IC50 [1], values ahead:

IC50 [1]	IC50 [2]	IC50 [3]	SMILES
0.026 nM	0.035 nM	0.57 nM	CNCCCCNc1ccc2c(c1)N/C1=N/C(=O)c3cc(C)nc(c3)-c3cnn(C)c3OCCC[C@@H](C3CC3)CN12 [US20250034165, Example 52]
0.023 nM		0.51 nM	CCN1CCC(Nc2ccc3c(c2)N/C2=N\C(=O)c4cc(C)nc(c4)-c4cnn(C)c4OCCC[C@@H](C4CC4)CN23)CC1 [US20250034165, Example 48]

Reference: BindingDB's records for patent US20250034165 (Chia Tai Tianqing Pharmaceutical Group, 2025)
